According to patent US20230114728A1 (Venatorx Pharmaceuticals, Inc., priority 2019, published 2023):
Converted amounts (≈) assume the structure as drawn.

Key:
Assay in all cases: Broth microdilution MIC in iron-depleted CAMHB (IDM)
Assay type in all cases: cell-based
[1] = system: A. baumannii CDC-0045 producing TEM-1D, OXA-23, and OXA-69; settings: Acinetobacter baumannii, read-out: Minimum Inhibitory Concentration, CDC-0045
P. aeruginosa ATCC 27853 = settings: Pseudomonas aeruginosa, ATCC27853, read-out: Minimum Inhibitory Concentration, P. aeruginosa ATCC 27853
Method in brief: (§1)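 MIC read by eye as the lowest concentration with no bacterial growth, following CLSI microdilution in iron-depleted cation-adjusted Mueller-Hinton broth at pH 7.3. Starting inoculum 2-8×10^5 CFU/mL; incubation 37° C, 16-20 h for Pseudomonas, 20-24 h for Acinetobacter.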

[2] = system: P. aeruginosa CDC-0095 producing OXA-50, and PAO; settings: Pseudomonas aeruginosa, read-out: Minimum Inhibitory Concentration, P. aeruginosa CDC-0095
Method in brief: as §1

P. aeruginosa ATCC 35151 = settings: Pseudomonas aeruginosa, ATCC35151; iron-depleted MHB (IDM); hyper-permeable strain; read-out: Minimum Inhibitory Concentration, P. aeruginosa ATCC 35151
Method in brief: as §1

P. aeruginosa CDC-0110 = settings: Pseudomonas aeruginosa, CDC0110, read-out: Minimum Inhibitory Concentration, P. aeruginosa CDC-0110
Method in brief: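 CLSI broth microdilution in iron-depleted cation-adjusted Mueller Hinton broth (Chelex-treated, Ca, Mg, Zn restored, pH 7.3), inoculum 2-8×10^5 CFU/mL, 2-fold compound dilutions. Pseudomonas plates incubated 16-20 h at 37 °C; MIC read visually as lowest concentration without growth.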

SMILES | MIC [1] [mg/L] | MIC (P. aeruginosa ATCC 27853) [mg/L] | MIC [2] [mg/L] | MIC (P. aeruginosa ATCC 35151) [mg/L] | MIC (P. aeruginosa CDC-0110) [mg/L]
NC(C(=O)N[C@H]1Cc2ccc(F)c(C(=O)O)c2OB1O)c1c(F)cc(O)c(O)c1Cl (stereo partly drawn) [Example 25, (3R)-3-(2-amino-2-(2-chloro-6-fluoro-3,4-dihydroxyphenyl)acetamido)-7-fluoro-2-hydroxy-3,4-dihydro-2H-benzo[e][1,2]oxaborinine-8-carboxylic acid] | 32 to 64 (≈ 72.3 to 145 µM) | 32 to 64 (≈ 72.3 to 145 µM) | 32 to 64 (≈ 72.3 to 145 µM) | 8 to 16 (≈ 18.1 to 36.2 µM) | 32 to 64 (≈ 72.3 to 145 µM)
CCN1CCN(C(=O)NC(C(=O)N[C@H]2Cc3ccc(F)c(C(=O)O)c3OB2O)c2c(F)cc(O)c(O)c2F)C(=O)C1=O (stereo partly drawn) [Example 36, (3R)-3-(2-(2,6-difluoro-3,4-dihydroxyphenyl)-2-(4-ethyl-2,3-dioxopiperazine-1-carboxamido)acetamido)-7-fluoro-2-hydroxy-3,4-dihydro-2H-benzo[e][1,2]oxaborinine-8-carboxylic acid] | 0.25 (≈ 0.421 µM) | 0.5 to 1 (≈ 0.841 to 1.68 µM) | 8 to 16 (≈ 13.5 to 26.9 µM) | 0.25 (≈ 0.421 µM) | 0.5 to 1 (≈ 0.841 to 1.68 µM)
O=C(O)c1c(F)ccc2c1OB(O)[C@@H](NC(=O)C(NC(=O)N1CCN(CCF)C(=O)C1=O)c1c(F)cc(O)c(O)c1F)C2 (stereo partly drawn) [Example 37, (3R)-3-(2-(2,6-difluoro-3,4-dihydroxyphenyl)-2-(4-(2-fluoroethyl)-2,3-dioxopiperazine-1-carboxamido)acetamido)-7-fluoro-2-hydroxy-3,4-dihydro-2H-benzo[e][1,2]oxaborinine-8-carboxylic acid] | 0.5 to 1 (≈ 0.817 to 1.63 µM) | 2 to 4 (≈ 3.27 to 6.53 µM) | 8 to 16 (≈ 13.1 to 26.1 µM) | 0.25 (≈ 0.408 µM) | 0.5 to 1 (≈ 0.817 to 1.63 µM)
O=C(O)c1c(F)ccc2c1OB(O)[C@@H](NC(=O)C(NC(=O)N1CCN(CCBr)C(=O)C1=O)c1c(F)cc(O)c(O)c1F)C2 (stereo partly drawn) [Example 38, (3R)-3-(2-(4-(2-bromoethyl)-2,3-dioxopiperazine-1-carboxamido)-2-(2,6-difluoro-3,4-dihydroxyphenyl)acetamido)-7-fluoro-2-hydroxy-3,4-dihydro-2H-benzo[e][1,2]oxaborinine-8-carboxylic acid] | 0.5 to 1 (≈ 0.743 to 1.49 µM) | 2 to 4 (≈ 2.97 to 5.94 µM) | 8 to 16 (≈ 11.9 to 23.8 µM) | 0.25 (≈ 0.371 µM) | 0.5 to 1 (≈ 0.743 to 1.49 µM)
CCN1CCN(C(=O)NC(C(=O)N[C@H]2Cc3ccc(F)c(C(=O)O)c3OB2O)c2cc(F)c(O)c(O)c2Cl)C(=O)C1=O (stereo partly drawn) [Example 42, (3R)-3-(2-(2-chloro-5-fluoro-3,4-dihydroxyphenyl)-2-(4-ethyl-2,3-dioxopiperazine-1-carboxamido)acetamido)-7-fluoro-2-hydroxy-3,4-dihydro-2H-benzo[e][1,2]oxaborinine-8-carboxylic acid] | 0.25 (≈ 0.409 µM) | 0.5 to 1 (≈ 0.819 to 1.64 µM) | 0.5 to 1 (≈ 0.819 to 1.64 µM) | 0.25 (≈ 0.409 µM) | 0.25 (≈ 0.409 µM)
O=C(O)c1ccc(C(NC(=O)c2c(F)cc(O)c(O)c2Cl)C(=O)N[C@H]2Cc3ccc(F)c(C(=O)O)c3OB2O)cc1F (stereo partly drawn) [Example 71, (3R)-3-(2-(4-carboxy-3-fluorophenyl)-2-(2-chloro-6-fluoro-3,4-dihydroxybenzamido)acetamido)-7-fluoro-2-hydroxy-3,4-dihydro-2H-benzo[e][1,2]oxaborinine-8-carboxylic acid] | 32 to 64 (≈ 52.6 to 105 µM) | 0.5 to 1 (≈ 0.821 to 1.64 µM) | 0.5 to 1 (≈ 0.821 to 1.64 µM) | 0.25 (≈ 0.411 µM) | 0.25 (≈ 0.411 µM)
CCN1CCN(C(=O)NC(C(=O)N[C@H]2Cc3cccc(C(=O)O)c3OB2O)c2cccc(NC(=O)c3ccc(O)c(O)c3Cl)c2)C(=O)C1=O (stereo partly drawn) [Example 73, (3R)-3-(2-(3-(2-chloro-3,4-dihydroxybenzamido)phenyl)-2-(4-ethyl-2,3-dioxopiperazine-1-carboxamido)acetamido)-2-hydroxy-3,4-dihydro-2H-benzo[e][1,2]oxaborinine-8-carboxylic acid] | 32 to 64 (≈ 46.1 to 92.2 µM) | 8 to 16 (≈ 11.5 to 23.1 µM) | 2 to 4 (≈ 2.88 to 5.76 µM) | 0.25 (≈ 0.36 µM) | 0.5 to 1 (≈ 0.721 to 1.44 µM)
CCN1CCN(C(=O)NC(C(=O)N[C@H]2Cc3cccc(C(=O)O)c3OB2O)c2ccc(O)c(NC(=O)c3ccc(O)c(O)c3Cl)c2)C(=O)C1=O (stereo partly drawn) [Example 74, (3R)-3-(2-(3-(2-chloro-3,4-dihydroxybenzamido)-4-hydroxyphenyl)-2-(4-ethyl-2,3-dioxopiperazine-1-carboxamido)acetamido)-2-hydroxy-3,4-dihydro-2H-benzo[e][1,2]oxaborinine-8-carboxylic acid] | 32 to 64 (≈ 45.1 to 90.2 µM) | 8 to 16 (≈ 11.3 to 22.5 µM) | 0.5 to 1 (≈ 0.704 to 1.41 µM) | 0.25 (≈ 0.352 µM) | 2 to 4 (≈ 2.82 to 5.63 µM)
CC(C)(C)[C@@H](NC(=O)N1CCN(CCNC(=O)c2c(F)cc(O)c(O)c2Cl)C(=O)C1=O)C(=O)N[C@H]1Cc2ccc(F)c(C(=O)O)c2OB1O [Example 80, (R)-3-((R)-2-(4-(2-(2-chloro-6-fluoro-3,4-dihydroxybenzamido)ethyl)-2,3-dioxopiperazine-1-carboxamido)-3,3-dimethylbutanamido)-7-fluoro-2-hydroxy-3,4-dihydro-2H-benzo[e][1,2]oxaborinine-8-carboxylic acid] | 8 to 16 (≈ 11.3 to 22.5 µM) | 2 to 4 (≈ 2.82 to 5.63 µM) | 2 to 4 (≈ 2.82 to 5.63 µM) | 0.25 (≈ 0.352 µM) | 0.5 to 1 (≈ 0.704 to 1.41 µM)
